# Data reported in PMC3753754, “Andrographis paniculata Extract and Andrographolide Modulate the Hepatic Drug Metabolism System and Plasma Tolbutamide Concentrations in Rats” (Evidence-based Complementary and Alternative Medicine : eCAM, 2013).
# Marks after values point to notes of the source that are not given here.
# Tests used:
# [1] = test system: CYP1A1, CYP1A2, CYP2C6, CYP2C11, and CYP3A2; assay: RT-PCR of hepatic CYP isozyme mRNA in treated rats; type: in vivo; settings: rat liver, APE or andrographolide for 5 days
# From the text: Total RNA in liver samples was extracted by using the Trizol reagent (1 : 20, w/v). […] The sequences for the PCR primers were as follows: for CYP1A1 (forward: 5′-[…]-3′; reverse: 5′-[…]-3′), CYP1A2 (forward: 5′-[…]-3′; reverse: 5′-[…]-3′), CYP2C6 (forward: 5′-[…]-3′; reverse: 5′-[…]-3′), CYP2C11 (forward: 5′-[…]-3′; reverse: 5′-[…]-3′), CYP2D1 (forward: 5′-[…]-3′; reverse: 5′-[…]-3′), CYP2E1 (forward: 5′-[…]-3′; reverse: 5′-[…]-3′), CYP3A1 (forward: 5′-[…]-3′; reverse: 5′-[…]-3′), CYP3A2 (forward: 5′-[…]-3′; reverse: 5′-[…]-3′), and P-glycoprotein (forward: 5′-[…]-3′; reverse: 5′-[…]-3′). The PCR for CYP1A1 was performed as follows: 5 min at 95°C and then 35 cycles of 30 s at 94°C, 30 s at 54°C, and 60 s at 72°C. For CYP1A2 and CYP3A2 amplification, the PCR cycle number was 30 times through a 30 s denaturing step at 94°C, a 30 s annealing step at 55°C, and a 30 s elongation step at 72°C. For CYP2D1 and CYP3A1, the PCR cycle number was 30 times through a 60 s denaturing step at 94°C, a 60 s annealing step at 56°C, and a 125 s elongation step at 72°C. […] The PCR amplicons were then electrophoresed in 1% agarose gels containing 40 mM Tris/20 mM glacial acetic acid/2 mM EDTA buffer, and the relative densities of the PCR products were quantitated by use of Image Gauge software (Fujifilm, Tokyo, Japan). […]
# [2] = test system: CYP2D; assay: Dextromethorphan O-deethylation in liver microsomes of treated rats; type: in vivo; settings: rat liver microsomes; oral 2 g/kg APE or 50 mg/kg AND daily for 5 days
# Protocol: (§1) Liver was homogenized (1 : 4, w/v) in an ice-cold potassium phosphate buffer (pH 7.4) containing 7.4 mM K2HPO4, 2.6 mM KH2PO4, 1.15% KCl, and 1 mM phenylmethylsulfonyl fluoride (PMSF). Tissue homogenates were centrifuged at 10,000 ×g for 30 min at 4°C. The resulting supernatant was then centrifuged at 105,000 ×g for 1 h at 4°C. The microsomes thus obtained were washed several times to get rid of possible tolbutamide contamination and this can avoid tolbutamide interference of CYP activity, and the microsomes were then suspended in potassium phosphate buffer (pH 7.7) containing 7.5 mM K2HPO4, 14.5 mM KH2PO4, and 1 mM EDTA. […] Metabolites of each CYP enzyme reaction were determined by LC/MS as reported previously. The contents of total CYP and cytochrome b5 were quantified by the method of Omura and Sato [29]. Enzyme activity is expressed as picomoles of metabolite formed per minute per milligram of protein. The NADPH-CYP reductase activity was measured as described by Phillips and Langdon with the use of cytochrome c as the substrate. The microsomal protein concentration was determined by using a Coomassie Plus protein assay kit (Pierce, Rockford, IL, USA).
# [3] = test system: CYP2C6/11; assay: Hepatic CYP2C6 and CYP2C11 protein expression in high-fat diet-induced obese mice; type: in vivo, C57BL/6 mice; settings: 2 g/kg APE or 50 mg/kg AND daily for 5 days
# Protocol: Eleven-month-old high-fat diet-fed (45% of energy from fat; Research Diet Inc., New Brunswick, NJ) C57BL/6 mice were obtained from the National Health Research Institute (Miaoli, Taiwan). Control mice were orally administered 0.5% methyl cellulose (10 mL/kg). […] After the 5th daily dose, the mice were deprived of food overnight. On day 6, a 20 mg/kg oral dose of tolbutamide, as a solution in Cremophor EL/ethanol/water (30/10/60, v/v/v), was administered to each mouse. Thirty minutes later, a 1 g/kg dose of glucose, as a solution in water, was administered orally according to the method described by Zong et al.. Serial blood samples were collected up to 8 h after the glucose dose from each mouse. The animals were then killed by exsanguination and the livers collected.
# Aliquots of microsomal protein (10 μg) were electrophoresed in an SDS-polyacrylamide gel, and proteins were then transferred to polyvinylidene fluoride membranes. After blocking, membranes were hybridized with antibodies to CYP1A1, CYP1A2, CYP2C6, CYP2C11, CYP2D1, CYP2E1, CYP3A1, and CYP3A2.
# [4] = test system: CYP3A; assay: Testosterone 6β-hydroxylation in liver microsomes of treated rats; type: in vivo; settings: rat liver microsomes; oral 2 g/kg APE or 50 mg/kg AND daily for 5 days
# Protocol: as §1
# [5] = test system: CYP1A2; assay: Methoxyresorufin O-demethylation in liver microsomes of treated rats; type: in vivo; settings: rat liver microsomes; oral 2 g/kg APE or 50 mg/kg AND daily for 5 days
# Protocol: as §1
# [6] = test system: Cytochrome P450; assay: Total CYP content in liver microsomes of treated rats; type: in vivo; settings: rat liver microsomes; oral 2 g/kg APE or 50 mg/kg AND daily for 5 days
# Protocol: as §1
# [7] = test system: Glutathione S-transferase; assay: GST activity in liver of treated rats; type: in vivo; settings: rat liver; oral 2 g/kg APE or 50 mg/kg AND daily for 5 days
# Protocol: The microsomal UGT activity was determined by using p-nitrophenol as the substrate. The rate of formation of p-nitrophenol glucuronic acid was measured by HPLC/UV [31]. GST activity was determined spectrophotometrically by measuring the formation rate of GSH conjugates.
# [8] = Plasma aminotransferases (AST, ALT) of treated rats; type: in vivo, Sprague-Dawley rats
# Protocol: All animals were killed by exsanguination via the abdominal aorta while under carbon dioxide (CO2/O2, 70%/30%) anesthesia. Heparin was used as the anticoagulant. Plasma was separated from the blood by centrifugation (1750 ×g) at 4°C for 20 min. The liver from each animal was excised, weighed, and stored at −80°C. This research has received ethical approval from the institutional animal ethics committee of China Medical University, Taichung, Taiwan.
# Plasma glucose was determined by use of enzymatic kits purchased from Audit Diagnostics Co. (Cork, Ireland). Plasma aspartate aminotransferase (AST) and alanine aminotransferase (ALT) activities were measured by using commercial kits purchased from Randox Laboratories (Antrim, UK).
# [9] = rats, oral 2 g/kg APE or 50 mg/kg AND daily for 5 days, mean ± SD, n = 5
smiles,measurement,setting,value
"C=C1CC[C@@H]2[C@](C)(CO)[C@H](O)CC[C@@]2(C)[C@@H]1C/C=C1/C(=O)OC[C@H]1O [andrographolide, Andrographolide]","mRNA levels of CYP1A1, CYP1A2, CYP2C6, CYP2C11, and CYP3A2",[1],induced
same,Dextromethorphan O-deethylase (2D),[2],79.1 ± 30.4 pmol/min/mg protein
same,Hepatic expression of CYP2C6/11,[3],induced
same,Testosterone 6β-hydroxylase (3A),[4],1195 ± 284^b pmol/min/mg protein
same,Methoxyresorufin O-demethylase (1A2),[5],25.6 ± 7.2^b pmol/min/mg protein
same,Cytochrome P450 content,[6],674 ± 64^b pmol/mg protein
same,Glutathione S-transferase activity,[7],634 ± 62 nmol/min/mg protein
same,Effect on rat liver function,"[8]; 2 g/kg APE and 50 mg/kg AND, plasma AST and ALT",no deleterious effect
same,"Plasma aminotransferases, ALT",[8]; [9],15.8 ± 8.2 U/L
same,"Plasma aminotransferases, AST",[8]; [9],27.7 ± 4.4 U/L
